Source: US12221453B2, “Substituted pyrazolo[5′,1′:2,3]pyrimido[5,4-b][1,4]oxazines as TYK2 inhibitors” (TAKEDA PHARMACEUTICAL COMPANY LIMITED, priority 2018, dated 2025)

Legend:
[1] = target: human TYK2 (JH2domain-pseudokinase) (Homo sapiens (Human), UniProt P29597); test: TYK2 JH2 domain binding assay (KINOMEscan, DiscoveRx); conditions: 11-point 3-fold dilution, top concentration 30,000 nM, duplicate; read-out: hTYK2_JH2_Binding (Kd; nM)
Description: From these HEK 293 cells, extracts were prepared in M-PER extraction buffer (Pierce) in the presence of Protease Inhibitor Cocktail Complete (Roche) and Phosphatase Inhibitor Cocktail Set II (Merck) per manufacturers' instructions. The TYK2 (JH2domain-pseudokinase) fusion protein was labeled with a chimeric double-stranded DNA tag containing the NFkB binding site (5′-[…]-3′) fused to an amplicon for qPCR readout, which was added directly to the expression extract (the final concentration of DNA-tag in the binding reaction is 0.1 nM).
The liganded beads were blocked with excess biotin and washed with blocking buffer (SeaBlock (Pierce), 1% BSA, 0.05% Tween 20, 1 mM DTT) to remove unbound ligand and to reduce nonspecific binding.
Extracts were loaded with DNA-tag and diluted into the binding reaction in a two step process. First extracts were diluted 1:100 in 1× binding buffer (PBS/0.05% Tween 20/10 mM DTT/0.1% BSA/2 μg/ml sonicated salmon sperm DNA) containing 10 nM DNA-tag. […] Kds were determined using an 11-point 3-fold compound dilution series with three DMSO control points. […]
Kds were determined using an 11-point 3-fold compound dilution series with three DMSO control points. […] The Kds were determined using a compound top concentration of 30,000 nM. […]
Binding constants (Kds) were calculated with a standard dose-response curve using the Hill equation: […]

[2] = tested on: IL-12 induced STAT4 phosphorylation mediated by TYK2/JAK2; test: IL-12 induced pSTAT4 in human PBMC; assay type: cell-based; conditions: 1 hr compound, 1.7 ng/mL IL-12 for 30 minutes
Procedure, shortened: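 Thawed human PBMC were pre-incubated with compound for 1 hr at 37 °C (0.1% DMSO), then stimulated with 1.7 ng/mL IL-12 for 30 minutes. Phospho-STAT4 and total STAT4 were measured in cell lysates by MSD.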

human TYK2 (JH2domain-pseudokinase), sequence (P29597 556-888): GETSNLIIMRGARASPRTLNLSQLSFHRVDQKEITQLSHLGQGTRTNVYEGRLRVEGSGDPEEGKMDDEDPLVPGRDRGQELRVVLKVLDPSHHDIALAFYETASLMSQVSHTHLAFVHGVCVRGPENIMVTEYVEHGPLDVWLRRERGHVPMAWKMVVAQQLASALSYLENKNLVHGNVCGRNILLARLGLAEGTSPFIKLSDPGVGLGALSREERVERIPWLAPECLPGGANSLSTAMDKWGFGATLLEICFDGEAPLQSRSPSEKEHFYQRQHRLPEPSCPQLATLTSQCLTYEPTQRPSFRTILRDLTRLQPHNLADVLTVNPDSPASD

CNc1cc(-c2cn([C@H]3CO[C@@H](COC)C3)c3ncccc23)nc2c(C(=O)N[C@H]3CC[C@@H]3OC)cnn12 [I-1018, N-((1S,2S)-2-methoxycyclobutyl)-5-(1-(5-(methoxymethyl)tetrahydrofuran-3-yl)-1H-pyrrolo[2,3-b]pyridin-3-yl)-7-(methylamino)pyrazolo[1,5-a]pyrimidine-3-carboxamide]
Kd [1]: < 0.2 nM
IC50 [2]: < 0.1 µM
